Consider six compounds from patent US20040171658A1, “Carbohydrate derivatives” (priority 2001, published 2004).

One data set deals with FXa (Homo sapiens, UniProt P00742). The data set is described as follows: Factor Xa inhibition (FXa-IC50). In kind it is biochemical. The text has this:
The inhibition of factor Xa by the compounds according to the invention and the measurement of the anticoagulant and antithrombotic activity can be determined by conventional in-vitro or in-vivo methods. A suitable method is described, for example, by J. Hauptmann et al. in Thrombosis and Haemostasis 1990, 63, 220-223.
The inhibition of factor Xa can be measured, for example, by the method of T. Hara et al. in Thromb. Haemostas. 1994, 71, 314-319.

A further data set concerns the target TF/FVIIa (Homo sapiens, UniProt P08709). The data set is described as follows: TF/factor VIIa inhibition (TF/FVIIa-IC50). In kind it is biochemical. An excerpt: The inhibition of factor VIIa by the compounds according to the invention and the measurement of the anticoagulant and antithrombotic activity can be determined by conventional in-vitro or in-vivo methods. A conventional method for the measurement of the inhibition of factor VIIa is described, for example, by H. F. Ronning et al. in Thrombosis Research 1996, 84, 73-81.

SMILES strings stand for the structures. Structures can show the parent of a compound that is named as a salt.

As a reminder, the melting point is the temperature, or range, at which the solid turns liquid. The IC50 is the point on the concentration scale where inhibition reaches its midpoint. Low values mean greater potency in that assay, high ones weaker potency in that assay.

Sequence of FXa (P00742 235-488 limits assumed): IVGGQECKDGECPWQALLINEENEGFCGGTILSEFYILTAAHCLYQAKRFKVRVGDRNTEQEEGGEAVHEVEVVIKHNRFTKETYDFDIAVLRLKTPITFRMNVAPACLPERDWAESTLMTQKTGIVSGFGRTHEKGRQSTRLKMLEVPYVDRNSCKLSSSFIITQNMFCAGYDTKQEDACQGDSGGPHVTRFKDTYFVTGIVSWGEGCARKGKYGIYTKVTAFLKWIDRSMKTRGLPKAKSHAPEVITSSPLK
Sequence of FXa (P00742 41-179 partner limits assumed): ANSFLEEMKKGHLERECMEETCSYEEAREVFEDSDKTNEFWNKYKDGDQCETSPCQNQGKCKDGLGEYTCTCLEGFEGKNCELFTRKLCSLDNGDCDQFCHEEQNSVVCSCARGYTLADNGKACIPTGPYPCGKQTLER
Sequence of TF/FVIIa (P08709 213-466 limits assumed): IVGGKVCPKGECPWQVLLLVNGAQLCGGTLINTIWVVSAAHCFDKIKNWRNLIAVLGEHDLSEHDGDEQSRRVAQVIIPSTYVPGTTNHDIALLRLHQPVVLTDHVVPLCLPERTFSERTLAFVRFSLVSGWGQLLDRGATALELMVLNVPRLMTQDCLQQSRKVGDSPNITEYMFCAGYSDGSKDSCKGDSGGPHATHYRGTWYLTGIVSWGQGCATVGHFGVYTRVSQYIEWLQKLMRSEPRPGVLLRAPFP
Sequence of TF/FVIIa (P08709 61-212 partner limits assumed): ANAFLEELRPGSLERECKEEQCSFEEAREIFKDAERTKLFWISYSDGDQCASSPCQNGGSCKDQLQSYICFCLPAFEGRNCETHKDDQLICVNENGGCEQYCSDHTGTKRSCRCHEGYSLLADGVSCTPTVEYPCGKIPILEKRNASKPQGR
Sequence of TF/FVIIa (P13726 33-295 partner): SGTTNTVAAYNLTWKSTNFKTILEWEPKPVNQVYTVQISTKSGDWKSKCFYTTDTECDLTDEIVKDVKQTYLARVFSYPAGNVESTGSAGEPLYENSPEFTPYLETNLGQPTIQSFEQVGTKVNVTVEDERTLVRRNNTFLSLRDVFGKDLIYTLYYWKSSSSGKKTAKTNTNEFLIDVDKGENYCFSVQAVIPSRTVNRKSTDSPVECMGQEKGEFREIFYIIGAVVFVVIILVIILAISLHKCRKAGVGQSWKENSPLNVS

`N=C(N)c1cccc(CO[C@H]2CO[C@H]3[C@@H]2OC[C@H]3Oc2cccc(C(=N)N)c2)c1` (as salt: trifluoroacetate) [Compound A1, 2-O-(3′-Amidinobenzyl)-5-O-(3″-amidinophenyl)-1,4:3,6-dianhydro-D-sorbitol] registered a melting point of 155 °C. `N=C(N)c1ccc(O[C@@H]2CO[C@H]3[C@@H]2OC[C@@H]3Oc2cccc(C(=N)N)c2)cc1` (as salt: trifluoroacetate) [Compound B1, 2-O-(3′-Amidinophenyl)-5-O-(4″-amidinophenyl)-1,4:3,6-dianhydro-D-sorbitol]: the melting point was 225 °C (dec.). At FXa, `N=C(N)c1cccc(CO[C@H]2CO[C@H]3[C@@H]2OC[C@H]3Oc2cccc(C(=N)N)c2)c1` [Compound A1, 2-O-(3′-Amidinobenzyl)-5-O-(3″-amidinophenyl)-1,4:3,6-dianhydro-D-sorbitol] showed an IC50 of 7.9 µM.

On to `N=C(N)c1ccc(O[C@@H]2CO[C@H]3[C@@H]2OC[C@@H]3OCc2cccc(C(=N)N)c2)cc1` [Compound A2, 2-O-(3′-amidinobenzyl)-5-O-(4″-amidinophenyl)-1,4:3,6-dianhydro-D-sorbitol], for which the half-inhibitory concentration (IC50) stood at 2.1 µM against FXa and 3.9 µM at TF/FVIIa. On to `N=C(N)c1ccc(O[C@@H]2CO[C@H]3[C@@H]2OC[C@@H]3Oc2cccc(C(=N)N)c2)cc1` [Compound B1, 2-O-(3′-Amidinophenyl)-5-O-(4″-amidinophenyl)-1,4:3,6-dianhydro-D-sorbitol], for which the values for the IC50 against FXa and against TF/FVIIa were 0.15 µM and 0.1 µM, respectively. Consider `N=C(N)c1cccc(O[C@H]2CO[C@H]3[C@@H]2OC[C@H]3Oc2cccc(C(=N)N)c2)c1` [Compound B2, 2-O-(3′-amidinophenyl)-5-O-(3″-amidinophenyl)-1,4:3,6-dianhydro-D-sorbitol], for which the IC50 against FXa came out at 3 µM; at TF/FVIIa, 6 µM.
